PMC2919490 (Journal of agricultural and food chemistry, 2010)
Read-outs that look alike come from different tables or passages of the source.

Columns and labels:
[1] = tested on: Caco-2 cells; test: Marker compounds hydrolysis and metabolism in Caco-2 transport study; format: in vitro ADME, human; settings: Caco-2 transport studies; for glucuronidation and sulfation metabolites: UPLC-MS/MS, of marker compounds and their aglycone; for hydrolysis to aglycone: aglycone by UPLC-MS/MS
[2] = tested on: SGLT1; test: Caco-2 transport of isoquercitrin in the presence of phloridzin; format: in vitro ADME, human; settings: pure isoquercitrin 10 μM, 50 μM phloridzin
[3] = biological target: MRP2 (Homo sapiens, UniProt Q92887); test: Caco-2 transport of isoquercitrin in the presence of MRP2 inhibitor MK 571; format: in vitro ADME
[4] = format: in vitro ADME, human; settings: human, Caco-2, pH 6.8, efflux ratio (Pba/Pab), vectorial transport ratio
[5] = tested on: Caco-2 cell monolayer; format: in vitro ADME, human; settings: for Pa-b as percent of control: pH 6.8, 37 °C
[6] = Stability of transport study solutions in HBSS at 37 °C; format: physicochemical; settings: HBSS pH 6.8, 37 °C water bath, 0, 1, 2, 4 and 6 hour, UPLC-MS/MS
[7] = tested on: Caco-2 cells; settings: cited from earlier work
[8] = especially under light exposure; cited from earlier work
[9] = isoquercitrin in product 2, 50 μM MK 571
[10] = isoquercitrin in product 4, 50 μM MK 571
[11] = pure isoquercitrin 10 μM, 50 μM MK 571 at apical side
[12] = in product 1 matrix, control pure compound 10 μM
[13] = in product 2 matrix, control pure compound 10 μM

MRP2, sequence (Q92887 whole entry): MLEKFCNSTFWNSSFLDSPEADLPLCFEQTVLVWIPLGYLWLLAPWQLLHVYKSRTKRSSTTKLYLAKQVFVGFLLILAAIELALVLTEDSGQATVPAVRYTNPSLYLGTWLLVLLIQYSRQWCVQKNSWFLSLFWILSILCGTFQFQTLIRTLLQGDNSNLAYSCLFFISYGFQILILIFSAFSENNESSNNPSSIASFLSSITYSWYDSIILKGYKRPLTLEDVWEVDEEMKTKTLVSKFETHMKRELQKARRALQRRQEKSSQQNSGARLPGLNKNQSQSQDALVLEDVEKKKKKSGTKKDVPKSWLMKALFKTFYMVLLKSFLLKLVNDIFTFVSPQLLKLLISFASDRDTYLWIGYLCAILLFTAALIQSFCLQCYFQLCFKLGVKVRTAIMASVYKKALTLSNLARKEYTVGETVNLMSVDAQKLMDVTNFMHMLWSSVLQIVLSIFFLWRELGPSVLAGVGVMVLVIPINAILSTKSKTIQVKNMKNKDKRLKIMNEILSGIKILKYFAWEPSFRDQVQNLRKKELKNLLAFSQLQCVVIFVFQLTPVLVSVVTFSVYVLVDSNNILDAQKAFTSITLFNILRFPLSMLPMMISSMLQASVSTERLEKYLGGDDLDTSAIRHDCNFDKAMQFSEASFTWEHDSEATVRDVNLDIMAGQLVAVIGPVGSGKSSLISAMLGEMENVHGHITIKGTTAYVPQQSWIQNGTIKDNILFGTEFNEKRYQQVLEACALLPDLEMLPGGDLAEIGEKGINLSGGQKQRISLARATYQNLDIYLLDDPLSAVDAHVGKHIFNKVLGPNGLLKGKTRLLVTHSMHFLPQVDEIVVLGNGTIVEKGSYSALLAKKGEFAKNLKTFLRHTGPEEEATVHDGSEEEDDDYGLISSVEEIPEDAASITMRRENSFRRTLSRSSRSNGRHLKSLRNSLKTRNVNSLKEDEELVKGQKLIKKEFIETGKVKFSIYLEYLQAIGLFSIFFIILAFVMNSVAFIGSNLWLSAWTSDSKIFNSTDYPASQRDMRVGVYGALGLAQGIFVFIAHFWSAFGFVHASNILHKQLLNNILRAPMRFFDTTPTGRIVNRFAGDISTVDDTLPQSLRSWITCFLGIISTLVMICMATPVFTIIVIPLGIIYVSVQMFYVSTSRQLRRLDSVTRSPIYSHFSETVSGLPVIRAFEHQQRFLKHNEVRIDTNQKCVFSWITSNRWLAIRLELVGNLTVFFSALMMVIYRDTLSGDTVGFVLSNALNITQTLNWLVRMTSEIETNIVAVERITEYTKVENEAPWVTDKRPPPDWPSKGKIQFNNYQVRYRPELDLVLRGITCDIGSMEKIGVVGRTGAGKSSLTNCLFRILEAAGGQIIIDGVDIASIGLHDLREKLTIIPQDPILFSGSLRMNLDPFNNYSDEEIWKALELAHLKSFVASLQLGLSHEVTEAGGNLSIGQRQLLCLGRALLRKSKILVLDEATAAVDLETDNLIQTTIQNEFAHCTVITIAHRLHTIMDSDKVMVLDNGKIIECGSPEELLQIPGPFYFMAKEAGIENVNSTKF

O=c1c(O[C@@H]2O[C@H](CO)[C@@H](O)[C@H](O)[C@H]2O)c(-c2ccc(O)c(O)c2)oc2cc(O)cc(O)c12 [isoquercitrin]
glucuronidation and sulfation metabolites [1]: not detected | hydrolysis to aglycone [1]: not hydrolyzed | Pa-b increase compared to the control [2]: 2.9 times | difference between Pa-b and Pb-a [2]: diminished | efflux ratio at 4 h ([3]; human, Caco-2, with MK 571, 50 µM): 0.4 | Pa-b change with MK 571 [3, 9]: didn't increase significantly | Pb-a reduction with MK 571 [3, 9]: 1.8 times | Pa-b increase with MK 571 [3, 10]: 2.9 times | Pb-a change with MK 571 [3, 10]: didn't change | Pb-a versus Pa-b [3, 10]: not statistically different | vectorial transport ratio ([3]; pure isoquercitrin 10 μM, 50 μM MK 571): 1 | Pa-b increase compared with control [3, 11]: 3.2 times | Pb-a decrease compared with control [3, 11]: 5.2 times | efflux ratio at 4 h, 10 µM [4]: 7.13 | Pb-a as percent of control [5, 12]: 78% | Pb-a as percent of control [5, 13]: 42% | stability in experimental solutions (relative peak area as a function of time) [6]: stable

C[C@@H]1O[C@@H](OC[C@H]2O[C@@H](Oc3c(-c4ccc(O)c(O)c4)oc4cc(O)cc(O)c4c3=O)[C@H](O)[C@@H](O)[C@@H]2O)[C@H](O)[C@H](O)[C@H]1O [rutin]
glucuronidation and sulfation metabolites [1]: not detected | hydrolysis to aglycone [1]: not hydrolyzed

C[C@@H]1O[C@@H](O[C@H]2[C@H](Oc3cc(O)c4c(c3)O[C@H](c3ccc(O)cc3)CC4=O)O[C@H](CO)[C@@H](O)[C@@H]2O)[C@H](O)[C@H](O)[C@H]1O [naringin]
permeability ([7]; Caco-2): 0.08 ×10⁻⁶ cm/s | permeability (words) ([7]; Caco-2): not permeable

Cc1cc(O)c2c(=O)c3c(O)cc(O)c4c5c(O)cc(O)c6c(=O)c7c(O)cc(C)c8c1c2c(c34)c(c78)c65 [hypericin]
stability in aqueous solutions [8]: highly unstable

C[C@H]1O[C@H](OC[C@H]2O[C@@H](Oc3c(-c4ccc(O)cc4)oc4cc(O)cc(O)c4c3=O)[C@H](O)[C@@H](O)[C@@H]2O)[C@@H](O)[C@@H](O)[C@@H]1O [kaempferol-3-rutinoside]
efflux ratio (Pba/Pab) ([5]; Caco-2, pH 6.8): 3.5 | vectorial transport ratio ([5]; human, Caco-2, 4 h, 50 µM, pH 6.8): 0.16

O=c1c(O[C@@H]2O[C@H](CO)[C@H](O)[C@H](O)[C@H]2O)c(-c2ccc(O)c(O)c2)oc2cc(O)cc(O)c12 [hyperoside]
glucuronidation and sulfation metabolites [1]: not detected | hydrolysis to aglycone [1]: not hydrolyzed | Pa-b compared with control [5, 12]: not altered | Pa-b as percent of control [5, 13]: 54% | Pa-b as percent of control ([5]; in product 4 matrix, control pure compound 10 μM): 46% | stability in experimental solutions (relative peak area as a function of time) [6]: stable

COc1ccc([C@@H]2CC(=O)c3c(O)cc(O[C@@H]4O[C@H](CO[C@@H]5O[C@@H](C)[C@H](O)[C@@H](O)[C@H]5O)[C@@H](O)[C@H](O)[C@H]4O)cc3O2)cc1O [hesperidin]
permeability (words) ([7]; HPLC-UV, 120 min transport): not permeable
